Source: patent publication US10045983B2, “Heteroaryl pyridone and aza-pyrodine compounds” (Genentech, Inc., priority 2011, dated 2018)

Experiment: CD69 Whole Blood Assay (CD69 Hu Blood FACS)
Assay type: cell-based, human
Settings: Lymphocyte; human whole blood, anti-IgM activated B lymphocytes, FACS; IC70; Table 2 (unit inferred); read-out: CD69 Hu Blood FACS (IC70)
Method in brief: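 Compounds tested for blocking B-cell CD69 induction by flow cytometry in human whole blood, with activation via anti-human IgM goat F(ab′)2 crosslinking of surface IgM.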

Compound	IC70 [nM]
CN1Cc2cc(Nc3cc(-c4ccnc(N5CCc6c(sc7c6CC(C)(C)C7)C5=O)c4CO)cn(C)c3=O)nn2CC1=O [Example 317, 3-[3-(hydroxymethyl)-4-[1-methyl-5-[(5-methyl-6-oxo-4,7-dihydropyrazolo[1,5-a]pyrazin-2-yl)amino]-6-oxo-3-pyridyl]-2-pyridyl]-7,7-dimethyl-1,2,6,8-tetrahydrocyclopenta[3,4]thieno[1,3-c]pyridin-4-one]	58.6
C[C@@H]1c2cc(Nc3cc(-c4ccnc(N5CCn6c(cc7c6CC(C)(C)C7)C5=O)c4CO)cn(C)c3=O)nn2CCN1C [Example 318, (R)-2-(5-((4,5-dimethyl-4,5,6,7-tetrahydropyrazolo[1,5-a]pyrazin-2-yl)amino)-3′-(hydroxymethyl)-1-methyl-6-oxo-1,6-dihydro-[3,4′-bipyridin]-2′-yl)-7,7-dimethyl-2,3,4,6,7,8-hexahydro-1H-cyclopenta[4,5]pyrrolo[1,2-a]pyrazin-1-one]	108
C[C@H]1c2cc(Nc3cc(-c4ccnc(N5CCn6c(cc7c6CC(C)(C)C7)C5=O)c4CO)cn(C)c3=O)nn2CCN1C [Example 319, (S)-2-(5-((4,5-dimethyl-4,5,6,7-tetrahydropyrazolo[1,5-a]pyrazin-2-yl)amino)-3′-(hydroxymethyl)-1-methyl-6-oxo-1,6-dihydro-[3,4′-bipyridin]-2′-yl)-7,7-dimethyl-2,3,4,6,7,8-hexahydro-1H-cyclopenta[4,5]pyrrolo[1,2-a]pyrazin-1-one]	16.7
C[C@@H]1COC[C@H](C)N1C(=O)c1ccc(Nc2cc(-c3ccnc(N4CCn5c(cc6c5CC(C)(C)C6)C4=O)c3CO)cn(C)c2=O)nc1 [Example 320, 3-[4-[5-[[5-[(3S,5R)-3,5-dimethylmorpholine-4-carbonyl]-2-pyridyl]amino]-1-methyl-6-oxo-3-pyridyl]-3-(hydroxymethyl)-2-pyridyl]-7,7-dimethyl-1,2,6,8-tetrahydrocyclopenta[3,4]pyrrolo[3,5-b]pyrazin-4-one]	46.8
C[C@@H]1COC[C@H](C)N1C(=O)c1ccc(Nc2cc(-c3ccnc(N4CCn5c(cc6c5CC(C)(C)C6)C4=O)c3CO)nn(C)c2=O)nc1 [Example 321, 3-[4-[5-[[5-[(3 S,5R)-3,5-dimethylmorpholine-4-carbonyl]-2-pyridyl]amino]-1-methyl-6-oxo-pyridazin-3-yl]-3-(hydroxymethyl)-2-pyridyl]-7,7-dimethyl-1,2,6,8-tetrahydrocyclopenta[3,4]pyrrolo[3,5-b]pyrazin-4-one]	112
C[C@@H]1COC[C@H](C)N1C(=O)c1ccc(Nc2cc(-c3ccnc(N4CCn5c(cc6c5CCCC6)C4=O)c3CO)cn(C)c2=O)nc1 [Example 322, 2-[4-[5-[[5-[(3S,5R)-3,5-dimethylmorpholine-4-carbonyl]-2-pyridyl]amino]-1-methyl-6-oxo-3-pyridyl]-3-(hydroxymethyl)-2-pyridyl]-3,4,6,7,8,9-hexahydropyrazino[1,2-a]indol-1-one]	79.6
COC1CN(c2ccc(Nc3cc(-c4ccnc(N5CCn6c(cc7c6CC(C)(C)C7)C5=O)c4CO)cn(C)c3=O)nc2)C1 [Example 323, 3-[3-(hydroxymethyl)-4-[5-[[5-(3-methoxyazetidin-1-yl)-2-pyridyl]amino]-1-methyl-6-oxo-3-pyridyl]-2-pyridyl]-7,7-dimethyl-1,2,6,8-tetrahydrocyclopenta[3,4]pyrrolo[3,5-b]pyrazin-4-one]	279
C[C@H]1COC[C@H](C)N1C(=O)c1ccc(Nc2cc(-c3ccnc(N4CCn5c(cc6c5CC(C)(C)C6)C4=O)c3CO)nn(C)c2=O)nc1 [Example 324, 3-[4-[5-[[5-[(3 S,5 S)-3,5-dimethylmorpholine-4-carbonyl]-2-pyridyl]amino]-1-methyl-6-oxo-pyridazin-3-yl]-3-(hydroxymethyl)-2-pyridyl]-7,7-dimethyl-1,2,6,8-tetrahydrocyclopenta[3,4]pyrrolo[3,5-b]pyrazin-4-one]	85.8
Cc1nn(C)c2cnc(Nc3cc(-c4ccnc(N5CCn6c(cc7c6CC(C)(C)C7)C5=O)c4CO)cn(C)c3=O)cc12 [Example 325, 3-[4-[5-[(1,3-dimethylpyrazolo[3,4-c]pyridin-5-yl)amino]-1-methyl-6-oxo-3-pyridyl]-3-(hydroxymethyl)-2-pyridyl]-7,7-dimethyl-1,2,6,8-tetrahydrocyclopenta[3,4]pyrrolo[3,5-b]pyrazin-4-one]	1400
Cc1c2cc(Nc3cc(-c4ccnc(N5CCn6c(cc7c6CC(C)(C)C7)C5=O)c4CO)cn(C)c3=O)ncc2nn1C [Example 326, 3-[4-[5-[(2,3-dimethylpyrazolo[3,4-c]pyridin-5-yl)amino]-1-methyl-6-oxo-3-pyridyl]-3-(hydroxymethyl)-2-pyridyl]-7,7-dimethyl-1,2,6,8-tetrahydrocyclopenta[3,4]pyrrolo[3,5-b]pyrazin-4-one]	1400
COCCN1CCn2nc(Nc3cc(-c4ccnc(N5CCn6c(cc7c6CC(C)(C)C7)C5=O)c4CO)c(C)n(C)c3=O)cc2C1 [Example 327, 3-[3-(hydroxymethyl)-4-[5-[[5-(2-methoxyethyl)-6,7-dihydro-4H-pyrazolo[1,5-a]pyrazin-2-yl]amino]-1,2-dimethyl-6-oxo-3-pyridyl]-2-pyridyl]-7,7-dimethyl-1,2,6,8-tetrahydrocyclopenta[3,4]pyrrolo[3,5-b]pyrazin-4-one]	2200
COCCN1CCn2nc(Nc3cc(-c4cncc(N5CCn6c(cc7c6CC(C)(C)C7)C5=O)c4CO)cn(C)c3=O)cc2C1 [Example 328, 3-[4-(hydroxymethyl)-5-[5-[[5-(2-methoxyethyl)-6,7-dihydro-4H-pyrazolo[1,5-a]pyrazin-2-yl]amino]-1-methyl-6-oxo-3-pyridyl]-3-pyridyl]-7,7-dimethyl-1,2,6,8-tetrahydrocyclopenta[3,4]pyrrolo[3,5-b]pyrazin-4-one]	12.4
COCCN1CCn2nc(Nc3cc(-c4nccc(N5CCn6c(cc7c6CC(C)(C)C7)C5=O)c4CO)cn(C)c3=O)cc2C1 [Example 329, 3-[3-(hydroxymethyl)-2-[5-[[5-(2-methoxyethyl)-6,7-dihydro-4H-pyrazolo[1,5-a]pyrazin-2-yl]amino]-1-methyl-6-oxo-3-pyridyl]-4-pyridyl]-7,7-dimethyl-1,2,6,8-tetrahydrocyclopenta[3,4]pyrrolo[3,5-b]pyrazin-4-one]	110
Cn1nc(-c2ccnc(N3CCc4c(sc5c4CC(C)(C)C5)C3=O)c2CO)cc(Nc2cc3n(n2)CC(C)(C)OC3)c1=O [Example 330, 3-[4-[5-[(6,6-dimethyl-4,7-dihydropyrazolo[5,1-c][1,4]oxazin-2-yl)amino]-1-methyl-6-oxo-pyridazin-3-yl]-3-(hydroxymethyl)-2-pyridyl]-7,7-dimethyl-1,2,6,8-tetrahydrocyclopenta[3,4]thieno[1,3-c]pyridin-4-one]	235
CCc1nnc(Nc2cc(-c3ccnc(N4CCn5c(cc6c5CC(C)(C)C6)C4=O)c3CO)cn(C)c2=O)s1 [Example 332, 3-[4-[5-[(5-ethyl-1,3,4-thiadiazol-2-yl)amino]-1-methyl-6-oxo-3-pyridyl]-3-(hydroxymethyl)-2-pyridyl]-7,7-dimethyl-1,2,6,8-tetrahydrocyclopenta[3,4]pyrrolo[3,5-b]pyrazin-4-one]	91.9
Cn1cc(Nc2cc(-c3ccnc(N4CCc5c(sc6c5CC(C)(C)C6)C4=O)c3CO)cn(C)c2=O)nn1 [Example 333, 3-[3-(hydroxymethyl)-4-[1-methyl-5-[(1-methyltriazol-4-yl)amino]-6-oxo-3-pyridyl]-2-pyridyl]-7,7-dimethyl-1,2,6,8-tetrahydrocyclopenta[3,4]thieno[1,3-c]pyridin-4-one]	209
Cn1cc(-c2ccnc(-n3ncc4c5c(sc4c3=O)CC(C)(C)C5)c2CO)cc(Nc2cc3n(n2)CC(C)(C)OC3)c1=O [Example 335, 3-[4-[5-[(6,6-dimethyl-4,7-dihydropyrazolo[5,1-c][1,4]oxazin-2-yl)amino]-1-methyl-6-oxo-3-pyridyl]-3-(hydroxymethyl)-2-pyridyl]-7,7-dimethyl-6,8-dihydrocyclopenta[3,4]thieno[1,3-d]pyridazin-4-one]	52.8
COCc1cc(Nc2cc(-c3ccnc(N4CCc5c(cc6n5CCCC6)C4=O)c3CO)cn(C)c2=O)nn1C [Example 336, 2-[3-(hydroxymethyl)-4-[5-[[5-(methoxymethyl)-1-methyl-pyrazol-3-yl]amino]-1-methyl-6-oxo-3-pyridyl]-2-pyridyl]-3,4,6,7,8,9-hexahydropyrido[3,4-b]indolizin-1-one]	330
Cc1nc(Nc2cc(-c3ccnc(N4CCn5c(cc6c5CC(C)(C)C6)C4=O)c3CO)cn(C)c2=O)cn1C [Example 337, 3-[4-[5-[(1,2-dimethylimidazol-4-yl)amino]-1-methyl-6-oxo-3-pyridyl]-3-(hydroxymethyl)-2-pyridyl]-7,7-dimethyl-1,2,6,8-tetrahydrocyclopenta[3,4]pyrrolo[3,5-b]pyrazin-4-one]	613
Cn1cc(-c2ccnc(N3CCn4c(cc5c4CC(C)(C)C5)C3=O)c2CO)cc(Nc2cc3n(n2)CCN(CCC#N)C3)c1=O [Example 338, 3-[2-[[5-[2-(7,7-dimethyl-4-oxo-1,2,6,8-tetrahydrocyclopenta[3,4]pyrrolo[3,5-b]pyrazin-3-yl)-3-(hydroxymethyl)-4-pyridyl]-1-methyl-2-oxo-3-pyridyl]amino]-6,7-dihydro-4H-pyrazolo[155-a]pyrazin-5-yl]propanenitrile]	17.8
COCCN1CCN(c2ccc(Nc3cc(-c4ccnc(N5CCn6c(cc7c6CC(C)(C)C7)C5=O)c4CO)cn(C)c3=O)nc2)CC1 [Example 339, 3-[3-(hydroxymethyl)-4-[5-[[5-[4-(2-methoxyethyl)piperazin-1-yl]-2-pyridyl]amino]-1-methyl-6-oxo-3-pyridyl]-2-pyridyl]-7,7-dimethyl-1,2,6,8-tetrahydrocyclopenta[3,4]pyrrolo[3,5-b]pyrazin-4-one]	53.5
COCCN1CCN(c2ccc(Nc3cc(-c4ccnc(N5CCn6c(cc7c6CC(C)(C)C7)C5=O)c4CO)cn(C)c3=O)nc2)[C@@H](C)C1 [Example 340, 3-[3-(hydroxymethyl)-4-[5-[[5-[(2S)-4-(2-methoxyethyl)-2-methyl-piperazin-1-yl]-2-pyridyl]amino]-1-methyl-6-oxo-3-pyridyl]-2-pyridyl]-7,7-dimethyl-1,2,6,8-tetrahydrocyclopenta[3,4]pyrrolo[3,5-b]pyrazin-4-one]	20.7
